Where “and” joins values, the source holds several entries; their conditions need not be identical. Equal entries are not always repeated. Structures can show the parent of a compound that is named as a salt. Where two headings read alike, the source gives them in different places. Blank lines part the entries; values can stand above or below the compound they belong to.
Tests used:
[1] = system: GRABNE1h; assay: GRABNE1h fluorescence in acute mouse hippocampal slices; type: cell-based, human
[2] = system: GRABNE1m; conditions: cultured hippocampal slices; puff application in ACSF
[3] = target: T1, GRABNE1m (Homo sapiens, UniProt P08913); type: cell-based; conditions: cultured neurons
[4] = system: GRABNE sensors; assay: Ligand specificity and dynamic range of GRABNE sensors; type: cell-based, human; conditions: for fluorescence response of the sensors to the compound: HEK293T cells, Fig. 2G
[5] = system: looming-evoked NE release (GRABNE1m fluorescence); assay: Looming-evoked GRABNE1m fluorescence in optic tectum of zebrafish; type: in vivo; conditions: for effect on looming-induced increase in GRABNE1m fluorescence: bath application 50 μM
[6] = system: release of endogenous NE in the LC (GRABNE1m fluorescence); type: cell-based, mouse
[7] = system: NE dynamics in the lateral hypothalamus (GRABNE1m fluorescence); type: in vivo, mouse; conditions: i.p.; atomoxetine 3 mg/kg, yohimbine 2 mg/kg, GBR 12909 10 mg/kg, sulpiride 50 mg/kg
[8] = system: GRABNE1h; assay: Fluorescence response of GRABNE1h expressed in HEK293T cells; type: cell-based, human; conditions: 10 μM yohimbine
[9] = system: GRABNE1m; type: cell-based, human
[10] = system: GRABNE1m; assay: Bath application to Tg; type: in vivo, zebrafish
[11] = system: optogenetically evoked NE release in the LC (GRABNE1m fluorescence); type: in vivo, mouse; conditions: i.p.; desipramine 10 mg/kg, yohimbine 2 mg/kg
[12] = system: GRABNE1h; type: cell-based, human; conditions: cultured hippocampal slices; puff application in ACSF
[13] = system: GRABNEmut; type: cell-based, human; conditions: cultured hippocampal slices
[14] = target: T1, GRABNE1m; type: cell-based
[15] = system: GRABNEmut; assay: Bath application to zebrafish expressing GRABNEmut; type: in vivo; conditions: 50 μM NE
[16] = system: GRABNEmut; assay: Fluorescence response of GRABNEmut expressed in HEK293T cells; type: cell-based, human; conditions: 100 μM NE
[17] = target: GRABNE1h (Homo sapiens, UniProt P08913, T388K); assay: Fluorescence response of GRABNE1h expressed in HEK293T cells; type: cell-based
[18] = system: GRABDA1m; conditions: 50 μM DA

fluorescence response to the compound ([3]; compounds at 10 μM each): responded specifically
Compound: CNC[C@H](O)c1ccc(O)c(O)c1 [Epi, Epinephrine hydrochloride]
fluorescence response to exogenous application [1]: evoked a fluorescence increase
fluorescence response to exogenous application [2]: generated fluorescence increases
fluorescence response of the sensors to the compound [4]: responded

Compound: Brc1c(NC2=NCCN2)ccc2nccnc12 [brimonidine, UK 14,304 tartrate]
fluorescence response to exogenous application [1]: evoked a fluorescence increase
fluorescence response to exogenous application [2]: generated fluorescence increases
fluorescence response of the sensors to the compound [4]: responded

Compound: COC(=O)[C@@H]1[C@H]2C[C@H]3c4[nH]c5ccccc5c4CCN3C[C@@H]2CC[C@@H]1O [yohimbine, Yohimbine hydrochloride]
effect on looming-induced increase in GRABNE1m fluorescence [5]: blocked
block of GRABNE1m response to applied NE ([6]; 50 μM NE, 20 μM yohimbine, Fig. 4H): abolished
effect on stimulation-induced fluorescence response ([6]; 20 pulses at 20 Hz, 4-AP 100 μM, Cd2+ 100 μM, desipramine 10 μM, yohimbine 20 μM): blocked the response
block of agonist-evoked fluorescence increase [1]: blocked
block of electrically evoked fluorescence increase ([1]; stimuli at 20 Hz for 1 s): blocked
effect on GRABNE1m peak fluorescence during tail suspension [7]: decreased
effect on time to return to baseline after tail suspension [7]: significantly accelerated the return to baseline
block of uncaging-induced fluorescence increase [8]: blocked
block of NE-induced fluorescence increase [9]: blocked completely
block of NE-induced fluorescence increase ([4]; GRABNE-expressing HEK293T cells): blocked
block of NE-induced fluorescence increase ([10]; 50 μM antagonist after 50 μM NE): blocked completely
effect on basal GRABNE1m fluorescence [11]: abolished
effect on light-evoked GRABNE1m responses [11]: abolished

Compound: CCN1CCCC1CNC(=O)c1cc(S(N)(=O)=O)ccc1OC (stereo not drawn) [sulpiride, Sulpiride]
effect on GRABNE1m peak fluorescence during tail suspension [7]: had no effect
effect on time to return to baseline after tail suspension [7]: had no effect

Compound: Fc1ccc(C(OCCN2CCN(CCCc3ccccc3)CC2)c2ccc(F)cc2)cc1 [GBR 12909]
effect on GRABNE1m peak fluorescence during tail suspension [7]: had no effect
effect on time to return to baseline after tail suspension [7]: had no effect
effect on light-evoked GRABNE1m responses [11]: had no effect

Compound: CNCCCN1c2ccccc2CCc2ccccc21 [desipramine, Desipramine hydrochloride]
effect on decay of looming-induced fluorescence signal ([5]; desipramine 50 μM): slowed the decay of the fluorescence signal
effect on basal GRABNE1m fluorescence [11]: slow progressive increase
effect on light-evoked GRABNE1m responses [11]: increase in the magnitude and decay time

Compound: Cc1ccc(OCC(O)C(C)NC(C)C)c2c1CCC2.Cl (stereo not drawn) [ICI 118,551, ICI 118,551 hydrochloride]
effect on looming-induced increase in GRABNE1m fluorescence [5]: unaffected

Compound: NC[C@H](O)c1ccc(O)c(O)c1 [NE, Norepinephrine]
fluorescence response to exogenous application [12]: evoked a robust increase in fluorescence
fluorescence response to exogenous application [13]: no detectable effect
average τoff ([14]; HEK293T cells, NE followed by 200 μM yohimbine, line scanning): 680 ms
internalization of GRABNE1m ([14]; saturating concentration of NE for 2 h): no internalization
fluorescence response to exogenous application [1]: evoked a fluorescence increase
fluorescence response to NE [15]: did not respond
fluorescence response to NE [16]: does not respond
fluorescence response to exogenous application [2]: evoked a robust increase in fluorescence
maximum ΔF/F0 ([17]; 100 μM NE): ~ 130%
mean on time constant after photolysis of NPEC-caged NE ([17]; 405-nm uncaging, single exponential fit): 137 ms
average τoff ([17]; NE followed by 200 μM yohimbine, line scanning): 1890 ms
increase in sensitivity to NE compared with GRABNE1m ([17]; T6.34K point mutation): 10 fold
fluorescence response of the sensors to the compound [4]: responded
peak ΔF/F0 response / dynamic range of the GRABNE sensor family ([4]; saturating NE): 230% and ~ 200%
fluorescence response to bath application ([10]; 50 μM, tectal neuropil, larvae): elicited a robust increase in fluorescence intensity

Compound: CNCC[C@@H](Oc1ccccc1C)c1ccccc1 [atomoxetine, Atomoxetine hydrochloride]
effect on GRABNE1m peak fluorescence during tail suspension [7]: had no effect
effect on time to return to baseline after tail suspension [7]: significantly slowed the return of signal to its baseline

Compound: NCCc1ccc(O)c(O)c1 [DA, Dopamine hydrochloride]
fluorescence response to application [18]: responded robustly

Compound: CCc1cc(Cl)c(OC)c(C(=O)NC[C@@H]2CCCN2CC)c1O [eticlopiride, Eticlopride hydrochloride]
effect on light-evoked GRABNE1m responses [11]: had no effect

Compound: pertussis toxin
effect on NE-induced fluorescence response ([14]; HEK293T cells, blocking G protein activation): had no effect
effect on NE-induced fluorescence response ([17]; blocking G protein activation): had no effect
effect on NE-induced fluorescence change ([3]; inhibiting G protein activation): did not affect

Source: article PMC6533151 (Neuron, 2019)
